Laboratory results published in PMC7835349 (Communications Biology, 2021).
“And” between values parts separate entries of the source, which are not always exact repeats. Equal values may be shown once.

Test system: telemetered dogs
Test: Conscious dog telemetry (QRS amplitude and other cardiovascular parameters, tolerability)
[1] = dog, 0.2 mg/kg 0.5h infusion, 22 h, 0.2 mg/kg
[2] = dog, 0.2 mg/kg 0.5h infusion, -0.75 h, 0.2 mg/kg
[3] = dog, 0.2 mg/kg 0.5h infusion, -1 h, 0.2 mg/kg
[4] = dog, 0.2 mg/kg 0.5h infusion, -1.25 h, 0.2 mg/kg
[5] = dog, 0.85 mg/kg 0.5h infusion, 0.5 h, 0.85 mg/kg
[6] = dog, 0.85 mg/kg 0.5h infusion, 0.75 h, 0.85 mg/kg
[7] = dog, 0.85 mg/kg 0.5h infusion, 1 h, 0.85 mg/kg
[8] = dog, 0.85 mg/kg 0.5h infusion, 1.5 h, 0.85 mg/kg
[9] = dog, 0.85 mg/kg 0.5h infusion, 2 h, 0.85 mg/kg
[10] = dog, 0.85 mg/kg 0.5h infusion, 3 h, 0.85 mg/kg
[11] = dog, 0.85 mg/kg 0.5h infusion, 4 h, 0.85 mg/kg
[12] = dog, 0.85 mg/kg 0.5h infusion, 6 h, 0.85 mg/kg
[13] = dog, 0.85 mg/kg 0.5h infusion, 8 h, 0.85 mg/kg
[14] = dog, 0.85 mg/kg 0.5h infusion, 12 h, 0.85 mg/kg
[15] = dog, 0.85 mg/kg 0.5h infusion, 16 h, 0.85 mg/kg
[16] = dog, 0.85 mg/kg 0.5h infusion, 22 h, 0.85 mg/kg
[17] = dog, 0.85 mg/kg 0.5h infusion, -0.75 h, 0.85 mg/kg
[18] = dog, 0.85 mg/kg 0.5h infusion, -1 h, 0.85 mg/kg
[19] = dog, 0.85 mg/kg 0.5h infusion, -1.25 h, 0.85 mg/kg
[20] = dog, AZD4320 0.2 mg/kg, 0.5 h infusion
[21] = dog, AZD4320 0.85 mg/kg, 0.5 h infusion
[22] = dog, AZD4320 0.85 mg/kg, 3 h infusion
[23] = dog, AZD4320 1 mg/kg, 0.5 h infusion
[24] = dog, AZD4320 1.75 mg/kg, 0.5 h infusion

CN(CCO)CCC(CSc1ccccc1)Nc1ccc(S(=O)(=O)NC(=O)c2ccc(N3CCC(C(O)c4ccccc4-c4ccc(Cl)cc4)CC3)cc2)cc1S(=O)(=O)C(F)(F)F (stereo not shown) [AZD4320]
ECG QRS duration [1]: 48 ms and 38 ms and 39 ms
Left ventricular -dP/dt (mmHg/s) [1]: 3689 mmHg/s and 2854 mmHg/s and 2653 mmHg/s and 4540 mmHg/s
QRS amplitude (% baseline) [1]: 114 % baseline and 97 % baseline and 102 % baseline
Systolic blood pressure (mmHg) [1]: 156 mmHg and 142 mmHg
ECG PR interval [2]: 90 ms and 106 ms and 89 ms
ECG QRS duration [2]: 37 ms and 40 ms
Left ventricular -dP/dt (mmHg/s) [2]: 3499 mmHg/s and 3284 mmHg/s and 4521 mmHg/s
QRS amplitude (% baseline) [2]: 97 % baseline and 88 % baseline and 93 % baseline
Systolic blood pressure (mmHg) [2]: 168 mmHg and 148 mmHg and 160 mmHg
ECG PR interval [3]: 91 ms and 102 ms and 82 ms
ECG QRS duration [3]: 38 ms and 40 ms and 37 ms
Left ventricular -dP/dt (mmHg/s) [3]: 3364 mmHg/s and 3529 mmHg/s and 4819 mmHg/s
QRS amplitude (% baseline) [3]: 99 % baseline and 90 % baseline and 93 % baseline
Systolic blood pressure (mmHg) [3]: 161 mmHg and 160 mmHg and 157 mmHg
ECG PR interval [4]: 90 ms and 95 ms and 93 ms
ECG QRS duration [4]: 37 ms and 40 ms
Left ventricular -dP/dt (mmHg/s) [4]: 3238 mmHg/s and 3347 mmHg/s and 4656 mmHg/s
QRS amplitude (% baseline) [4]: 104 % baseline and 91 % baseline and 97 % baseline
Systolic blood pressure (mmHg) [4]: 147 mmHg and 150 mmHg and 151 mmHg
QRS amplitude (% baseline) (dog, 0.2 mg/kg 0.5h infusion, -[…]): 100 % baseline
ECG PR interval [5]: 115 ms and 79 ms
ECG QRS duration [5]: 45 ms and 37 ms and 40 ms
Left ventricular -dP/dt (mmHg/s) [5]: 3662 mmHg/s and 3777 mmHg/s and 3464 mmHg/s
QRS amplitude (% baseline) [5]: 94 % baseline and 95 % baseline and 97 % baseline
Systolic blood pressure (mmHg) [5]: 155 mmHg and 158 mmHg
ECG PR interval [6]: 119 ms and 78 ms
ECG QRS duration [6]: 44 ms and 38 ms and 40 ms
Left ventricular -dP/dt (mmHg/s) [6]: 3170 mmHg/s and 3744 mmHg/s and 3322 mmHg/s
QRS amplitude (% baseline) [6]: 99 % baseline and 91 % baseline and 104 % baseline
Systolic blood pressure (mmHg) [6]: 154 mmHg and 157 mmHg
ECG PR interval [7]: 115 ms and 91 ms
ECG QRS duration [7]: 44 ms and 37 ms and 40 ms
Left ventricular -dP/dt (mmHg/s) [7]: 3366 mmHg/s and 3696 mmHg/s and 3150 mmHg/s
QRS amplitude (% baseline) [7]: 100 % baseline and 90 % baseline and 102 % baseline
Systolic blood pressure (mmHg) [7]: 135 mmHg and 151 mmHg
ECG PR interval [8]: 117 ms and 112 ms
ECG QRS duration [8]: 44 ms and 39 ms and 40 ms
Left ventricular -dP/dt (mmHg/s) [8]: 3030 mmHg/s and 3166 mmHg/s
QRS amplitude (% baseline) [8]: 78 % baseline and 86 % baseline
Systolic blood pressure (mmHg) [8]: 147 mmHg and 138 mmHg
ECG PR interval [9]: 111 ms and 87 ms
ECG QRS duration [9]: 42 ms and 36 ms and 39 ms
Left ventricular -dP/dt (mmHg/s) [9]: 2904 mmHg/s and 3371 mmHg/s
QRS amplitude (% baseline) [9]: 75 % baseline and 83 % baseline
Systolic blood pressure (mmHg) [9]: 144 mmHg and 171 mmHg
ECG PR interval [10]: 99 ms and 81 ms
ECG QRS duration [10]: 37 ms and 33 ms
QRS amplitude (% baseline) [10]: 59 % baseline and 60 % baseline
Systolic blood pressure (mmHg) [10]: 142 mmHg and 156 mmHg
ECG PR interval [11]: 93 ms and 79 ms
ECG QRS duration [11]: 36 ms and 33 ms
QRS amplitude (% baseline) [11]: 56 % baseline and 60 % baseline
Systolic blood pressure (mmHg) [11]: 128 mmHg and 137 mmHg
ECG PR interval [12]: 89 ms and 79 ms
ECG QRS duration [12]: 37 ms and 35 ms
Left ventricular -dP/dt (mmHg/s) [12]: 2074 mmHg/s and 2402 mmHg/s
QRS amplitude (% baseline) [12]: 67 % baseline and 70 % baseline
Systolic blood pressure (mmHg) [12]: 116 mmHg and 117 mmHg
ECG PR interval [13]: 88 ms and 83 ms
ECG QRS duration [13]: 37 ms and 34 ms
Left ventricular -dP/dt (mmHg/s) [13]: 2367 mmHg/s and 2612 mmHg/s
QRS amplitude (% baseline) [13]: 78 % baseline and 80 % baseline
Systolic blood pressure (mmHg) [13]: 120 mmHg and 124 mmHg
ECG PR interval [14]: 85 ms
ECG QRS duration [14]: 40 ms and 36 ms
Left ventricular -dP/dt (mmHg/s) [14]: 3043 mmHg/s and 2589 mmHg/s
QRS amplitude (% baseline) [14]: 84 % baseline and 70 % baseline
Systolic blood pressure (mmHg) [14]: 128 mmHg and 131 mmHg
ECG PR interval [15]: 102 ms and 87 ms
ECG QRS duration [15]: 42 ms and 37 ms
Left ventricular -dP/dt (mmHg/s) [15]: 3119 mmHg/s and 2829 mmHg/s
QRS amplitude (% baseline) [15]: 98 % baseline and 70 % baseline
Systolic blood pressure (mmHg) [15]: 130 mmHg and 147 mmHg
ECG PR interval [16]: 112 ms and 84 ms
ECG QRS duration [16]: 44 ms and 36 ms
Left ventricular -dP/dt (mmHg/s) [16]: 3111 mmHg/s and 3851 mmHg/s
QRS amplitude (% baseline) [16]: 101 % baseline and 78 % baseline
Systolic blood pressure (mmHg) [16]: 132 mmHg and 149 mmHg
ECG PR interval [17]: 111 ms and 99 ms
ECG QRS duration [17]: 45 ms and 39 ms
Left ventricular -dP/dt (mmHg/s) [17]: 3973 mmHg/s and 3847 mmHg/s and 2891 mmHg/s
QRS amplitude (% baseline) [17]: 100 % baseline and 105 % baseline and 103 % baseline
Systolic blood pressure (mmHg) [17]: 162 mmHg and 159 mmHg
ECG PR interval [18]: 108 ms and 98 ms
ECG QRS duration [18]: 44 ms and 36 ms and 39 ms
Left ventricular -dP/dt (mmHg/s) [18]: 3612 mmHg/s and 3810 mmHg/s and 3070 mmHg/s
QRS amplitude (% baseline) [18]: 101 % baseline and 100 % baseline and 107 % baseline
Systolic blood pressure (mmHg) [18]: 149 mmHg and 163 mmHg
ECG PR interval [19]: 110 ms and 96 ms and 89 ms
ECG QRS duration [19]: 44 ms and 37 ms and 40 ms
Left ventricular -dP/dt (mmHg/s) [19]: 3200 mmHg/s and 3594 mmHg/s and 2862 mmHg/s
QRS amplitude (% baseline) [19]: 100 % baseline and 105 % baseline
Systolic blood pressure (mmHg) [19]: 142 mmHg and 165 mmHg and 139 mmHg
QRS amplitude (% baseline) (dog, 0.85 mg/kg 0.5h infusion, -[…]): 100 % baseline
tolerability (dog, 1 mg/kg AZD4320): not tolerated
Effects [20]: No effect level
Tolerated? [20]: Yes
Effects other than QRS amplitude [21]: ↓SBP, ↑HR, ↓dP/dt-, ↓PR interval, ↓QRS interval, ↓LVEDP
Tolerated? [21]: Yes
↓QRS amplitude (% decrease) [21]: 49%
Tolerated? [22]: Yes
↓QRS amplitude (% decrease) [22]: 32%
Effects other than QRS amplitude [23]: poorly tolerated
Tolerated? [23]: No
↓QRS amplitude (% decrease) [23]: 75%
Effects other than QRS amplitude [24]: ↓SBP, ↑HR, ↓dP/dt-, ↓PR interval, ↓QRS interval, ↓LVEDP
Tolerated? [24]: No
↓QRS amplitude (% decrease) [24]: 94%
cardiovascular changes (preclinical development, Supplementary Fig. 1a, b): dose-dependent decreases in QRS amplitude, QRS duration & PR intervals, blood pressure, left ventricular pressure and contractility
